Results published in publication PMC7201284, “A complete compendium of crystal structures for the human SEPT3 subgroup reveals functional plasticity at a specific septin interface” (IUCrJ, 2020).

Experiments:
Assay in all cases: X-ray crystallography, co-crystallization
SEPT9GC = molecular target: T1, SEPT9GC (Homo sapiens, UniProt Q9UHD8); details: about 2.0 Å; Mg2+; nucleotide-binding site at G interface
T1 construct: gene SEPTIN9; G domain plus C-terminal region, residues 279-568, pET-28a(+) His-tag, E. coli Rosetta (DE3); monomer about 38 kDa; purified nucleotide-free
T1 sequence (Q9UHD8 279-568): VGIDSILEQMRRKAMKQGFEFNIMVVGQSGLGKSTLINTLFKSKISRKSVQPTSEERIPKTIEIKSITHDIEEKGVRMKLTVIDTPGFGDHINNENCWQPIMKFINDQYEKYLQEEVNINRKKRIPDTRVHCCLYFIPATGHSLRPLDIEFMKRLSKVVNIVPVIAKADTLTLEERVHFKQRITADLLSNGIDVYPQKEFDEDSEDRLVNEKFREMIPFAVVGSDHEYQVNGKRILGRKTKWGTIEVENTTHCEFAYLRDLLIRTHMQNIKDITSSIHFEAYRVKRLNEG

SEPT12G = molecular target: T2, SEPT12G (Homo sapiens, UniProt Q8IYM1); details: Mg2+, nucleotide-binding site
T2 construct: gene SEPTIN12; G domain, residues 47-320, pET-28a(+) His-tag, E. coli Rosetta (DE3); monomer about 32 kDa
T2 sequence (Q8IYM1 47-320): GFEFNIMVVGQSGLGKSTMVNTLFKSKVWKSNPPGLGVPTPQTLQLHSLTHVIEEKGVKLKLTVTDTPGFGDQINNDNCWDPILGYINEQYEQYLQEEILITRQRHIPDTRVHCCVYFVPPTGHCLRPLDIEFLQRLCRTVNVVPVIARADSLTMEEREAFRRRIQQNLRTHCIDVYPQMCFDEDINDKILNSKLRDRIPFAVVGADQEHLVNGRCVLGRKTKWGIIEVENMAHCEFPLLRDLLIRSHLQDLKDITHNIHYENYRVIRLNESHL

SEPT3α0G = molecular target: T3, SEPT3α0G (Homo sapiens, UniProt Q9UH03); details: 1.83 Å; Mg2+ in active site; nucleotide-binding site at G interface
T3 construct: gene SEPTIN3; G domain plus polybasic helix α0, residues 43-330; expressed and purified as in Macedo et al. 2013; monomer in solution; homotypic G-interface dimers in crystal
T3 sequence (Q9UH03 43-330): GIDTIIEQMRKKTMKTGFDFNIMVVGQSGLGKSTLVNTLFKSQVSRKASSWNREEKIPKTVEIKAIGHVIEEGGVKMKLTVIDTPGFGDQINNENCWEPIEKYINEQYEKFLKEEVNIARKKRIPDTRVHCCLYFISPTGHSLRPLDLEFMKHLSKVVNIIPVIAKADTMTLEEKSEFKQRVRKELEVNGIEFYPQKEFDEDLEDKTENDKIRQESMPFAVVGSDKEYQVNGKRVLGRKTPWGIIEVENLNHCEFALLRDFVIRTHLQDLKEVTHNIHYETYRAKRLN

SEPT3G = molecular target: T4, SEPT3G (Homo sapiens, UniProt Q9UH03); details: 1.86 Å; Mg2+; nucleotide-binding site; b26 labels 4z51 as GTPγS but methods, Table 2 and results say GMPPNP
T4 construct: gene SEPTIN3; G domain without helix α0, residues 59-330; expressed and purified as in Macedo et al. 2013; monomer in solution; homotypic G-interface dimers in crystal
T4 sequence (Q9UH03 59-330): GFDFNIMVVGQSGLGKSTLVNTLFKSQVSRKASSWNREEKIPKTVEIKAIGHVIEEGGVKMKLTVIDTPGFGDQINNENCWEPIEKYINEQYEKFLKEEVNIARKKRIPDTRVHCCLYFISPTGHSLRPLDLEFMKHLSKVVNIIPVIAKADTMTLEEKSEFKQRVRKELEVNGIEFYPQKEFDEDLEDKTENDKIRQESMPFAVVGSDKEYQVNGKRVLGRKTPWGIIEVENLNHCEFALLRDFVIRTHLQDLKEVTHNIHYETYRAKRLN

Compound | X-ray crystallography, co-crystallization (SEPT9GC) | X-ray crystallography, co-crystallization (SEPT12G; 2.19 Å, small quantity of GDP also co-purified) | X-ray crystallography, co-crystallization (SEPT3α0G) | X-ray crystallography, co-crystallization (SEPT12G; 1.86 Å (P1, 6mq9) and 2.12 Å (C2221, 6mqb)) | X-ray crystallography, co-crystallization (SEPT3G)
Nc1nc2c(ncn2[C@@H]2O[C@H](COP(=O)(O)OP(=O)(O)O)[C@@H](O)[C@H]2O)c(=O)[nH]1 [GDP] | The structure of SEPT9GC–GDP (PDB entry 5cyo) has a G-interface dimer in the asymmetric unit | In SEPT12G–GDP (PDB entry 6mqk) the metal ion is canonically coordinated by Thr89, Ser63 | structures of the G domain of SEPT3 complexed with either GDP or the GTP mimetic GMPPNP | – | –
Nc1nc2c(ncn2[C@@H]2O[C@H](COP(=O)(O)OP(=O)(O)NP(=O)(O)O)[C@@H](O)[C@H]2O)c(=O)[nH]1 [GMPPNP] | – | – | – | Two structures were obtained in the presence of GMPPNP | The SEPT3G–GMPPNP complex (PDB entry 4z51) has only one monomer per asymmetric unit
